The supplement of paper PMC13380429

Legend:
Details in all cases: 72 h
Calu-3 [1] = experiment: drug sensitivity score (DSS) for viability; higher = more toxic; extreme values may be limits of the assay
Vero E6 [2] = experiment: as above
U2OS [3] = experiment: as above
HepG2 [4] = experiment: as above
Caco-2 [5] = experiment: as above
Calu-3 [6] = experiment: relative viability EC50 (midpoint between 100% and the lowest measured viability); higher = less toxic
Vero E6 [7] = experiment: as above
U2OS [8] = experiment: as above
HepG2 [9] = experiment: as above
Caco-2 [10] = experiment: as above
Calu-3 [11] = experiment: cell viability relative to DMSO; higher = less toxic
Vero E6 [12] = experiment: as above
U2OS [13] = experiment: as above
HepG2 [14] = experiment: as above
Caco-2 [15] = experiment: as above

Row | Structure (SMILES) | drug sensitivity score (Calu-3 [1]) | drug sensitivity score (Vero E6 [2]) | drug sensitivity score (U2OS [3]) | drug sensitivity score (HepG2 [4]) | drug sensitivity score (Caco-2 [5]) | relative viability EC50 (Calu-3 [6]) [µM] | relative viability EC50 (Vero E6 [7]) [µM] | relative viability EC50 (U2OS [8]) [µM] | relative viability EC50 (HepG2 [9]) [µM] | relative viability EC50 (Caco-2 [10]) [µM] | cell viability (Calu-3 [11]; 1 nM) [%] | cell viability (Calu-3 [11]; 10 nM) [%] | cell viability (Calu-3 [11]; 100 nM) [%] | cell viability (Calu-3 [11]; 1000 nM) [%] | cell viability (Calu-3 [11]; 10000 nM) [%] | cell viability (Vero E6 [12]; 1 nM) [%] | cell viability (Vero E6 [12]; 10 nM) [%] | cell viability (Vero E6 [12]; 100 nM) [%] | cell viability (Vero E6 [12]; 1000 nM) [%] | cell viability (Vero E6 [12]; 10000 nM) [%] | cell viability (U2OS [13]; 1 nM) [%] | cell viability (U2OS [13]; 10 nM) [%] | cell viability (U2OS [13]; 100 nM) [%] | cell viability (U2OS [13]; 1000 nM) [%] | cell viability (U2OS [13]; 10000 nM) [%] | cell viability (HepG2 [14]; 1 nM) [%] | cell viability (HepG2 [14]; 10 nM) [%] | cell viability (HepG2 [14]; 100 nM) [%] | cell viability (HepG2 [14]; 1000 nM) [%] | cell viability (HepG2 [14]; 10000 nM) [%] | cell viability (Caco-2 [15]; 1 nM) [%] | cell viability (Caco-2 [15]; 10 nM) [%] | cell viability (Caco-2 [15]; 100 nM) [%] | cell viability (Caco-2 [15]; 1000 nM) [%] | cell viability (Caco-2 [15]; 10000 nM) [%]
1 | CO[C@@]1(NC(=O)Cc2cccs2)C(=O)N2C(C(=O)O)=C(COC(N)=O)CS[C@@H]21 [cefoxitin] | 0 | 0.5 | 0 | 0 | 0 | > 10 | > 10 | > 10 | > 10 | > 10 | 106 | 94.4 | 106 | 104 | 110 | 104 | 95.7 | 100 | 96.8 | 85.5 | 95.6 | 99 | 96.3 | 102 | 105 | 113 | 91.4 | 98.1 | 97.4 | 97.4 | 90.1 | 95.5 | 102 | 101 | 97.8
2 | COc1nccc(-c2c(-c3ccc(F)cc3)ncn2[C@H]2CC[C@H](O)CC2)n1 | 3.8 | 0 | 0 | 0 | 0 | > 10 | > 10 | > 10 | > 10 | > 10 | 99.5 | 106 | 82.2 | 81.7 | 85.6 | 94.7 | 94.3 | 92.7 | 87.5 | 101 | 95.9 | 102 | 93.5 | 98.7 | 98.8 | 98.9 | 97.6 | 103 | 104 | 108 | 84.5 | 90.9 | 93.1 | 88.6 | 93.9
3 | COc1ccc(C2CNC(=O)NC2)cc1O[C@H]1C[C@@H]2CC[C@H]1C2 [atizoram] | 0 | 0.1 | 0 | 1 | 0 | > 10 | > 10 | > 10 | > 10 | > 10 | 103 | 102 | 96.3 | 108 | 108 | 96.5 | 105 | 100 | 99.5 | 87.4 | 106 | 96.5 | 101 | 102 | 103 | 99 | 107 | 102 | 94.1 | 82.8 | 95.3 | 96.9 | 98.6 | 96.6 | 102
4 | CC1CCC(NC(=O)N(CCCl)N=O)CC1 (stereo not given) [semustine] | 0 | 0 | 0 | 0 | 0 | > 10 | > 10 | > 10 | > 10 | > 10 | 98.5 | 110 | 87 | 97.2 | 99.4 | 106 | 99.6 | 105 | 104 | 99.8 | 98.8 | 96.6 | 99.6 | 99.5 | 99.9 | 96.3 | 108 | 92.3 | 107 | 91.8 | 99.1 | 103 | 104 | 91.1 | 91.7
5 | NC(=O)c1ncn([C@@H]2O[C@H](CO)[C@@H](O)[C@H]2O)c1N [acadesine] | 0 | 0 | 0 | 0 | 0 | > 10 | > 10 | > 10 | > 10 | > 10 | 96.6 | 94.9 | 84.2 | 97.8 | 90.8 | 101 | 98 | 100 | 94.4 | 97.2 | 100 | 91.8 | 96.5 | 97.9 | 102 | 98.1 | 96.1 | 105 | 97.9 | 102 | 96.7 | 98.1 | 86.4 | 92.7 | 95.7
6 | C[C@@H]1CN(Cc2ccc(F)cc2)[C@@H](C)CN1C(=O)c1cc2c(C(=O)C(=O)N(C)C)cn(C)c2cc1Cl [talmapimod] | 0 | 2.1 | 0 | 0 | 1.5 | > 10 | > 10 | > 10 | > 10 | > 10 | 106 | 101 | 99.8 | 92.9 | 100 | 96.1 | 103 | 93.5 | 84.6 | 85 | 106 | 101 | 103 | 96.9 | 90.6 | 112 | 108 | 100 | 104 | 104 | 103 | 99.2 | 90.4 | 86.4 | 91.8
7 | c1ccc2cc(C3=NCCN3)ncc2c1 [BU226] | 0 | 0 | 0 | 0 | 0 | > 10 | > 10 | > 10 | > 10 | > 10 | 112 | 97.5 | 97 | 97.4 | 91.8 | 96.6 | 97.1 | 96.5 | 94.6 | 98.7 | 105 | 108 | 99.7 | 106 | 100 | 102 | 95.7 | 86.1 | 103 | 104 | 103 | 108 | 94.3 | 97.7 | 101
